Reference: the supplement of paper PMC11451515

What was measured:
NOMO1 [1] = experiment: AUC of viability dose-response curve (% viability x log10 dose units); higher = less sensitive; conditions: 48 h
Method in brief: (§1)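 Viability of medium-adapted leukemia cells was measured by CellTiter-Glo One luminescence after 48 h at 37°C with library compounds in DMSO. Doses were 11 threefold steps from 47 μM to 0.79 nM, in 1536-well plates at 500 or 1000 cells/well. Signals were normalised per plate to DMSO and cell-free wells and fitted with a four-parameter log-logistic model on log10 dose. Area under the curve was integrated by trapezoidal rule, with curves exceeding full viability scaled and failed quality-control curves removed.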

SEM cells [2] = experiment: as above; conditions: 48 h
Method in brief: as §1

P12-Ichikawa [3] = experiment: as above; conditions: 48 h
Method in brief: as §1

NOMO1 [4] = experiment: cell viability relative to DMSO control; higher = less cytotoxic; conditions: RPMI 5 mM glucose + 10% FBS, 48 h
Method in brief: (§2)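 NOMO1 or SEM (500 cells/well) or P12-Ichikawa (1000 cells/well) leukemia cells were adapted for at least four passages in each medium. They were seeded in 1536-well plates (5 μl) and pin-dosed with library compounds in DMSO over an 11-point threefold series, 47 μM to 0.79 nM. CellTiter-Glo One luminescence was read after 48 h at 37°C. Viability is the per-plate percentage relative to DMSO wells, with cell-free wells as background.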

SEM cells [5] = experiment: as above; conditions: 48 h
Method in brief: as §2

P12-Ichikawa [6] = experiment: as above; conditions: HPLM + 10% dialyzed FBS, 48 h
Method in brief: as §2

O=c1[nH]c2ccccc2n1CCCN1CCC(n2c(=O)[nH]c3cc(Cl)ccc32)CC1
Conditions	AUC of viability dose-response curve	cell viability [%]
NOMO1 [1], HPLM + 10% dialyzed FBS	459	–
NOMO1 [1], RPMI 5 mM glucose + 10% FBS	466	–
NOMO1 [1], RPMI 5 mM glucose + 10% dialyzed FBS	472	–
NOMO1 [4], 0.000781 µM	–	124
NOMO1 [4], 0.00234 µM	–	146
NOMO1 [4], 0.00702 µM	–	123
NOMO1 [4], 0.0211 µM	–	134
NOMO1 [4], 0.0632 µM	–	151
NOMO1 [4], 0.19 µM	–	149
NOMO1 [4], 0.569 µM	–	137
NOMO1 [4], 1.71 µM	–	116
NOMO1 [4], 5.12 µM	–	131
NOMO1 [4], 15.4 µM	–	146
NOMO1 [4], 46.1 µM	–	122
P12-Ichikawa [3], HPLM + 10% dialyzed FBS	467	–
P12-Ichikawa [3], RPMI 5 mM glucose + 10% FBS	460	–
P12-Ichikawa [3], RPMI 5 mM glucose + 10% dialyzed FBS	470	–
SEM cells [2], HPLM + 10% dialyzed FBS	448	–
SEM cells [2], RPMI 5 mM glucose + 10% FBS	473	–
SEM cells [2], RPMI 5 mM glucose + 10% dialyzed FBS	475	–

C=C1/C(=C\C=C2/CCC[C@]3(C)[C@@H]([C@H](C)CCCC(C)(C)O)CC[C@@H]23)C[C@@H](O)C[C@@H]1O
Conditions	AUC of viability dose-response curve	cell viability [%]
NOMO1 [1], HPLM + 10% dialyzed FBS	440	–
NOMO1 [1], RPMI 5 mM glucose + 10% FBS	448	–
NOMO1 [1], RPMI 5 mM glucose + 10% dialyzed FBS	448	–
P12-Ichikawa [3], HPLM + 10% dialyzed FBS	454	–
P12-Ichikawa [3], RPMI 5 mM glucose + 10% FBS	445	–
P12-Ichikawa [3], RPMI 5 mM glucose + 10% dialyzed FBS	458	–
P12-Ichikawa [6], 0.000781 µM	–	122
P12-Ichikawa [6], 0.00234 µM	–	126
P12-Ichikawa [6], 0.00702 µM	–	118
P12-Ichikawa [6], 0.0211 µM	–	131
P12-Ichikawa [6], 0.0632 µM	–	124
P12-Ichikawa [6], 0.19 µM	–	123
P12-Ichikawa [6], 0.569 µM	–	120
P12-Ichikawa [6], 1.71 µM	–	117
P12-Ichikawa [6], 15.4 µM	–	118
P12-Ichikawa [6], 46.1 µM	–	90.4
SEM cells [2], HPLM + 10% dialyzed FBS	459	–
SEM cells [2], RPMI 5 mM glucose + 10% FBS	449	–
SEM cells [2], RPMI 5 mM glucose + 10% dialyzed FBS	450	–

SEM cells [5], RPMI 5 mM glucose + 10% FBS
Conditions	cell viability [%]
0.000781 µM	105
0.00234 µM	120
0.00702 µM	117
0.0211 µM	113
0.0632 µM	123
0.19 µM	110
0.569 µM	126
1.71 µM	113
5.12 µM	92.9
15.4 µM	98.7
46.1 µM	57.2

CCC[C@H](NC(=O)[C@@H]1[C@H]2CCC[C@H]2CN1C(=O)[C@@H](NC(=O)[C@@H](NC(=O)c1cnccn1)C1CCCCC1)C(C)(C)C)C(=O)C(=O)NC1CC1
AUC of viability dose-response curve
Conditions	NOMO1 [1]	P12-Ichikawa [3]	SEM cells [2]
HPLM + 10% dialyzed FBS	461	474	454
RPMI 5 mM glucose + 10% FBS	474	473	469
RPMI 5 mM glucose + 10% dialyzed FBS	472	476	470

SEM cells [5], HPLM + 10% dialyzed FBS
Conditions	cell viability [%]
0.000781 µM	106
0.00234 µM	99.8
0.00702 µM	106
0.0211 µM	106
0.0632 µM	111
0.19 µM	118
0.569 µM	118
1.71 µM	119
5.12 µM	127
15.4 µM	111
46.1 µM	116

O=C(NCC1CCCCN1)c1cc(OCC(F)(F)F)ccc1OCC(F)(F)F (stereo unspecified)
AUC of viability dose-response curve
Conditions	NOMO1 [1]	P12-Ichikawa [3]	SEM cells [2]
HPLM + 10% dialyzed FBS	326	352	457
RPMI 5 mM glucose + 10% FBS	304	353	464
RPMI 5 mM glucose + 10% dialyzed FBS	317	375	468

cell viability [%], SEM cells [5]
Conditions	HPLM + 10% dialyzed FBS	RPMI 5 mM glucose + 10% FBS
0.000781 µM	104	117
0.00234 µM	130	115
0.00702 µM	115	124
0.0211 µM	128	137
0.0632 µM	130	121
0.19 µM	151	127
0.569 µM	130	131
1.71 µM	140	128
5.12 µM	115	120
15.4 µM	118	121
46.1 µM	43.7	61.9

CCCc1cc(C(N)=S)ccn1
AUC of viability dose-response curve
Conditions	NOMO1 [1]	P12-Ichikawa [3]	SEM cells [2]
HPLM + 10% dialyzed FBS	470	466	446
RPMI 5 mM glucose + 10% FBS	472	436	469
RPMI 5 mM glucose + 10% dialyzed FBS	465	472	475

SEM cells [5], HPLM + 10% dialyzed FBS
Conditions	cell viability [%]
0.000781 µM	92.5
0.00234 µM	110
0.00702 µM	111
0.0211 µM	113
0.0632 µM	114
0.19 µM	117
0.569 µM	85.6
1.71 µM	56.3
5.12 µM	119
15.4 µM	130
46.1 µM	133
